From patent US20150265608A1, “Compounds for Treating Rac-GTPase Mediated Disorder” (Children's Medical Center Corporation, priority 2012, published 2015)

Tests used:
leukemia cell lines = test: MTS assay of inhibition of proliferation; format: cell-based
Method: The 100 compounds selected from the initial in silico screen were assayed for inhibition of proliferation in two leukemia cell lines, SEM and REH, by MTS ((3-(4,5-dimethylthiazol-2-yl)-5-(3-carboxymethoxyphenyl)-2-(4-sulfophenyl)-2H-tetrazolium)) assay. The cells for the MTS assay were spun down and re-suspended. The cell suspension was then divided and the compound to be tested added in desired concentrations and subsequently plated. Following an incubation period, MTS reagent (Promega CellTiter 96® Aqueous Non-Radioactive Cell Proliferation Assay) was added and allowed to incubate. The absorbance is subsequently measured at 490 nm using a plate reader.
The five lead compounds, i.e. Compounds 1-5, were further analyzed for their effect on cell proliferation at various doses on different leukemia cells. First, each the five compounds was screened in nine leukemia cell lines: REH, SEM, MV411, RS411, Jurkat, Raji, Nomo-1, Naim6, and ML2 at a concentration of 20 μM. Four of the lead compounds, Compounds 2, 3, 4 and 5 were further tested in SEM and MV411 cells at a range of concentrations for inhibition of proliferation. In order to quantitate the percentage inhibition of cell proliferation, MTS analysis was completed as described in Example 2 above.

Rac1-GTPase = target: T1, Rac1-GTPase (Homo sapiens, UniProt P63000); test: pull down assay for RAC-GTP with Western blot; format: cell-based; details: exposure of the cells for 5 and 60 minutes, FIG. 9b
T1 construct: The assay initially required treatment of cells followed by pull down and analysis with Western blot; endogenous in cells; host or cells: Leukemia cells
Method: To determine which of these compounds should be further pursued, a biochemical pull down assay was performed to confirm specific inhibition of Rac activation indicated by disruption of the interaction between Rac and […]. The assay initially required treatment of cells followed by pull down and analysis with Western blot. The cells were first starved in serum free media for 2 hours. They were then re-suspended in serum-containing medium and inhibitors added at desired concentration. Following incubation for the desired length of time, the cells were pelleted and lysed with Magnesium Lysis Buffer (Millipore Mg^2+lysis/wash buffer). The Rac protein and any bound proteins were then collected with Pak Beads (Millipore Rac/cdc42 Assay Reagent (PAK-1 PBD, agarose). Bound protein was subsequently removed with lysis buffer and subject to Western Blot analysis.
Additional analysis of Compound 5 was performed to assess its effects on apoptosis, cell death and RAC-GTPase interaction. FIG. 9a indicates the effect of OSSK—373747 on the apoptotic pathway in SEM cells. Apoptotic cells and dead cells following incubation of SEM cells with 20 and 80 μM of Compound 5 were analyzed using Annexin V staining.

[1] = system: normal bone marrow hematopoietic progenitor cells; test: clonogenic assay in methylcellulose (colony formation) for toxicity; format: cell-based, mouse; details: compared to the other compounds
Method: Four of the lead compounds (Compounds 2, 3, 4, and 5) were screened for toxicity in normal bone marrow hematopoietic progenitor cells. Average colonies formed from normal BL-6 mouse bone marrow were counted following exposure of the four lead compounds individually at concentrations of 5 μM, 20 μM or 80 μM in methylcellulose. A clonogenic assay in methylcellulose was performed to assess colony formation. MethoCult base (StemCell Tech #03134) was mixed with the following reagents: fetal bovine serum, bovine serum albumin, IL-3, mSCF, EPO, beta-mercaptoethanol, penicillin, streptomycin, L-glutamine, and IMDM, and added to normal bone marrow cells. The cells in suspension are then plated and resulting colonies counted after 7 days.

[2] = in vivo tolerability in NSG mice xenografted with MV411 cells
Method: In vivo tolerability of Compound 7 was evaluated in NSG mice xenografted with MV411 cells stably expressing luciferase via constitutive promoter. Compound 7 was prepared in a solution of 10% NMP, 5% CremaphorEL, 30% PEG200, and 55% D5W and administered PO at a dose of 50, 100, 250, or 500 mg/kg once each day for a period of 7 days. Five mice were utilized for each test group.
Body weight was recorded 3 times/week upon dosing. On treatment day 6, the mice were imaged via bioluminescence imaging to ensure the presence of the xenografted MV411 leukemia cells. Following the final dose, dose 7, at least 100 μL of blood was drawn via submandibular bleed for plasma collection. Eight hours following the last dose, cardiac puncture blood draw was performed for plasma collection.

## O=C(CSc1nc2ccccc2n1Cc1ccccc1)N/N=C/c1ccccc1O [Compound 5]
Leukemia cell lines; summary of prior experiments, compared to the other compounds
  efficacy (inhibition of leukemia cell proliferation): strong efficacy
Rac1-GTPase
  GTPase and Rac interaction: decrease in GTPase and Rac interaction
[1]; 20 μM or 80 μM, FIG. 8
  toxicity to the normal cells (average colonies from normal mouse bone marrow): least toxicity
[1]; summary statement
  toxicity to normal bone marrow cells: low toxicity

## Cc1nn(Cc2ccc(F)cc2)c2sc(C(=O)Nc3ccc4c(c3)OCO4)cc12 [Compound 7]
[2]; PO 50, 100, 250 or 500 mg/kg once each day for 7 days
  in vivo tolerability: tolerable
[2]; PO 50, 100, 250 or 500 mg/kg over a 7 day period, FIG. 19b
  change in weight of animals: no progressive weight loss

## NNC(=O)CSc1nc2ccccc2n1Cc1ccccc1 [Compound 12]
Leukemia cell lines; in vitro
  inhibitory activity on leukemia cell lines: retains inhibitory activity
